Measured values as given in patent US10172830B2, “Pyrazolone compounds having human neutrophil elastase inhibitory properties” (CHIESI FARMACEUTICI S.P.A., priority 2016, dated 2019).

Biological target: T1, human neutrophil elastase (HNE) (Homo sapiens, UniProt P08246)
T1 construct: purchased Sigma E8140
T1 sequence (P08246 30-247 limits assumed): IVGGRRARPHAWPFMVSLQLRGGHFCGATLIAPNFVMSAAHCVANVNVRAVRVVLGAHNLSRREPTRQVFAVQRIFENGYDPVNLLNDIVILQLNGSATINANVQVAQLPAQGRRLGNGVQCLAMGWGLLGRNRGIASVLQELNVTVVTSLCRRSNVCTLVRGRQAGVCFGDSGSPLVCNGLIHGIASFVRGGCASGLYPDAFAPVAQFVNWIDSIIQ
Experiment: HNE enzyme assay (human neutrophil elastase enzyme activity assay)
Assay type: biochemical
Conditions: human leukocyte elastase 0.00072 U/mL; substrate MeOSuc-Ala-Ala-Pro-Val-AMC 100 μM; 25° C. for 30 minutes; at least two separate experiments; read-out: HNE inhibition (HNE enzyme inhibition, IC50 values)
Description: Compounds of the present invention were tested for potency in a human neutrophil elastase (HNE) enzyme activity assay.
Assays were performed in 96-well plates in a total assay volume of 100 μL. The final concentration of elastase enzyme (human leukocyte elastase, Sigma E8140) was 0.00072 U/mL. The peptide substrate (MeOSuc-Ala-Ala-Pro-Val-AMC, Calbiochem #324740) was used at a final concentration of 100 μM. The final concentration of DMSO was 1% in the assay buffer (0.05M Tris.HCl, 0.1M NaCl, 0.1M CaCl2, 0.0005% brij-35, pH 7.5). The enzymatic reaction was started by addition of the enzyme and incubated at 25° C. for 30 minutes. After incubation, the reaction was stopped by addition of soybean trypsin inhibitor (Sigma T9003) at a final concentration of 50 μg/well. Fluorescence was measured using a Molecular Devices fluorescence plate reader using 380 nm excitation and 460 nm emission wavelengths.
A dose response to each compound was performed and the effect of compound in each experiment was expressed as a percentage inhibition of the control enzyme fluorescence. Dose response curves were plotted and compound potency (IC50) was determined. Compounds were tested in at least two separate experiments.

Row | Structure (SMILES) | IC50 [nM]
1 | C[C@H](NC(=O)c1c(-c2ccnn2-c2ccc(C#N)cc2)n(C)n(-c2cccc(C(F)(F)F)c2)c1=O)C(=O)N(C)CC1CC[N+](C)(C)CC1 [Example 36, 4-{[((S)-2-{[2′-(4-Cyano-phenyl)-2-methyl-5-oxo-1-(3-trifluoromethyl-phenyl)-2,5-dihydro-1H,2′H-[3,3′]bipyrazolyl-4-carbonyl]-amino}-propionyl)-methyl-amino]-methyl}-1,1-dimethyl-piperidinium benzene sulphonate] | < 1
2 | C[C@H](NC(=O)c1c(-c2ccnn2-c2ccc(C#N)cc2)n(C)n(-c2cccc(C(F)(F)F)c2)c1=O)c1nnc(C[N+](C)(C)C)o1 [Example 37, [5-((S)-1-{[2′-(4-Cyano-phenyl)-2-methyl-5-oxo-1-(3-trifluoromethyl-phenyl)-2,5-dihydro-1H,2′H-[3,3′]bipyrazolyl-4-carbonyl]-amino}-ethyl)-[1,3,4]oxadiazol-2-ylmethyl]-trimethyl-ammonium benzene sulphonate] | < 1
3 | C[C@H](NC(=O)c1c(-c2ccnn2-c2ccc(C#N)cc2)n(C)n(-c2cccc(C(F)(F)F)c2)c1=O)C(=O)OCC1CC[N+](C)(C)CC1 [Example 38, 4-((S)-2-{[2′-(4-Cyano-phenyl)-2-methyl-5-oxo-1-(3-trifluoromethyl-phenyl)-2,5-dihydro-1H,2′H-[3,3′]bipyrazolyl-4-carbonyl]-amino}-propionyloxymethyl)-1,1-dimethyl-piperidinium benzene sulphonate] | < 1
4 | Cn1c(-c2ccnn2-c2ccc(C#N)cc2)c(C(=O)NC2CCN(C(=O)C3CC[N+](C)(C)CC3)CC2)c(=O)n1-c1cccc(C(F)(F)F)c1 [Example 39, 4-(4-{[2′-(4-Cyano-phenyl)-2-methyl-5-oxo-1-(3-trifluoromethyl-phenyl)-2,5-dihydro-1H,2′H-[3,3′]bipyrazolyl-4-carbonyl]-amino}-piperidine-1-carbonyl)-1,1-dimethyl-piperidinium benzene sulphonate] | < 1
5 | CN(CC1CC[N+](C)(C)CC1)C(=O)C(C)(C)NC(=O)c1c(-c2ccnn2-c2ccc(C#N)cc2)n(C)n(-c2cccc(C(F)(F)F)c2)c1=O [Example 40, 4-{[(2-{[2′-(4-Cyano-phenyl)-2-methyl-5-oxo-1-(3-trifluoromethyl-phenyl)-2,5-dihydro-1H,2′H-[3,3′]bipyrazolyl-4-carbonyl]-amino}-2-methyl-propionyl)-methyl-amino]-methyl}-1,1-dimethyl-piperidinium benzene sulphonate] | < 1
6 | C[C@H](NC(=O)c1c(-c2ccnn2-c2ccc(C#N)cc2)n(C)n(-c2cccc(C(F)(F)F)c2)c1=O)C(=O)N1CCC([N+](C)(C)C)CC1 [Example 41, [1-((S)-2-{[2′-(4-Cyano-phenyl)-2-methyl-5-oxo-1-(3-trifluoromethyl-phenyl)-2,5-dihydro-1H,2′H-[3,3′]bipyrazolyl-4-carbonyl]-amino}-propionyl)-piperidin-4-yl]-trimethyl-ammonium benzene sulphonate] | < 1
7 | Cn1c(-c2ccnn2-c2ccc(C#N)cc2)c(C(=O)N[C@H]2CC[C@H](C(=O)NCC[N+](C)(C)C)CC2)c(=O)n1-c1cccc(C(F)(F)F)c1 [Example 42, {2-[(Trans-4-{[2′-(4-cyano-phenyl)-2-methyl-5-oxo-1-(3-trifluoromethyl-phenyl)-2,5-dihydro-1H,2′H-[3,3′]bipyrazolyl-4-carbonyl]-amino}-cyclohexanecarbonyl)-amino]-ethyl}-trimethyl-ammonium benzene sulphonate] | < 1
8 | Cn1c(-c2ccnn2-c2ccc(C#N)cc2)c(C(=O)NC2CCN(C(=O)C[N+](C)(C)Cc3ccccc3)CC2)c(=O)n1-c1cccc(C(F)(F)F)c1 [Example 43, Benzyl-[2-(4-{[2′-(4-cyano-phenyl)-2-methyl-5-oxo-1-(3-trifluoromethyl-phenyl)-2,5-dihydro-1H,2′H-[3,3′]bipyrazolyl-4-carbonyl]-amino}-piperidin-1-yl)-2-oxo-ethyl]-dimethyl-ammonium bromide] | < 1
9 | C[C@H](NC(=O)c1c(-c2ccnn2-c2ccc(C#N)cc2)n(C)n(-c2cccc(C(F)(F)F)c2)c1=O)C(=O)N(C)CC[N+](C)(C)C [Example 44, {2-[((S)-2-{[2′-(4-Cyano-phenyl)-2-methyl-5-oxo-1-(3-trifluoromethyl-phenyl)-2,5-dihydro-1H,2′H-[3,3′]bipyrazolyl-4-carbonyl]-amino}-propionyl)-methyl-amino]-ethyl}-trimethyl-ammonium benzene sulphonate] | < 1
10 | Cn1c(-c2ccnn2-c2ccc(C#N)cc2)c(C(=O)N[C@H]2CC[C@H](NC(=O)C[N+](C)(C)C)CC2)c(=O)n1-c1cccc(C(F)(F)F)c1 [Example 45, [(Trans-4-{[2′-(4-cyano-phenyl)-2-methyl-5-oxo-1-(3-trifluoromethyl-phenyl)-2,5-dihydro-1H,2′H-[3,3′]bipyrazolyl-4-carbonyl]-amino}-cyclohexylcarbamoyl)-methyl]-trimethyl-ammonium benzene sulphonate] | < 1
11 | Cc1cc(C[N+](C)(C)C[C@H]2CC[C@H](NC(=O)c3c(-c4ccnn4-c4ccc(C#N)cc4)n(C)n(-c4cccc(C(F)(F)F)c4)c3=O)CC2)n(C)n1 [Example 46, (Trans-4-{[2′-(4-cyano-phenyl)-2-methyl-5-oxo-1-(3-trifluoromethyl-phenyl)-2,5-dihydro-1H,2′H-[3,3′]bipyrazolyl-4-carbonyl]-amino}-cyclohexylmethyl)-(2,5-dimethyl-2H-pyrazol-3-ylmethyl)-dimethyl-ammonium bromide] | < 1
12 | Cc1cc(C[N+](C)(C)C[C@H]2CC[C@H](NC(=O)c3c(-c4ccnn4-c4ccc(C#N)cc4)n(C)n(-c4cccc(C(F)(F)F)c4)c3=O)CC2)no1 [Example 47, (Trans-4-{[2′-(4-cyano-phenyl)-2-methyl-5-oxo-1-(3-trifluoromethyl-phenyl)-2,5-dihydro-1H,2′H-[3,3′]bipyrazolyl-4-carbonyl]-amino}-cyclohexylmethyl)-dimethyl-(5-methyl-isoxazol-3-ylmethyl)-ammonium chloride] | < 1
13 | Cn1c(-c2ccnn2-c2ccc(C#N)cc2)c(C(=O)NC(C)(C)c2ncc(C[N+](C)(C)C)o2)c(=O)n1-c1cccc(C(F)(F)F)c1 [Example 48, [2-(1-{[2′-(4-Cyano-phenyl)-2-methyl-5-oxo-1-(3-trifluoromethyl-phenyl)-2,5-dihydro-1H,2′H-[3,3′]bipyrazolyl-4-carbonyl]-amino}-1-methyl-ethyl)-oxazol-5-ylmethyl]-trimethyl-ammonium benzene sulphonate] | < 1
14 | Cc1cc(C[N+]2(C)CCN(C(=O)[C@H](C)NC(=O)c3c(-c4ccnn4-c4ccc(C#N)cc4)n(C)n(-c4cccc(C(F)(F)F)c4)c3=O)CC2)no1 [Example 49, 4-((S)-2-{[2′-(4-Cyano-phenyl)-2-methyl-5-oxo-1-(3-trifluoromethyl-phenyl)-2,5-dihydro-1H,2′H-[3,3′]bipyrazolyl-4-carbonyl]-amino}-propionyl)-1-methyl-1-(5-methyl-isoxazol-3-ylmethyl)-piperazin-1-ium chloride] | < 1
15 | Cc1cc(C[N+](C)(C)CC(=O)N2CCC(NC(=O)c3c(-c4ccnn4-c4ccc(C#N)cc4)n(C)n(-c4cccc(C(F)(F)F)c4)c3=O)CC2)no1 [Example 50, [2-(4-{[2′-(4-Cyano-phenyl)-2-methyl-5-oxo-1-(3-trifluoromethyl-phenyl)-2,5-dihydro-1H,2′H-[3,3′]bipyrazolyl-4-carbonyl]-amino}-piperidin-1-yl)-2-oxo-ethyl]-dimethyl-(5-methyl-isoxazol-3-ylmethyl)-ammonium chloride] | < 1
16 | Cn1c(-c2ccnn2-c2ccc(C#N)cc2)c(C(=O)N[C@H]2C[C@H](C(=O)NCC[N+](C)(C)C)C2)c(=O)n1-c1cccc(C(F)(F)F)c1 [Example 51, {2-[(Trans-3-{[2′-(4-cyano-phenyl)-2-methyl-5-oxo-1-(3-trifluoromethyl-phenyl)-2,5-dihydro-1H,2′H-[3,3′]bipyrazolyl-4-carbonyl]-amino}-cyclobutanecarbonyl)-amino]-ethyl}-trimethyl-ammonium benzene sulphonate] | < 1
17 | C[C@H](NC(=O)c1c(-c2ccnn2-c2ccc(C#N)cc2)n(C)n(-c2cccc(C(F)(F)F)c2)c1=O)c1ncc(CC[N+](C)(C)C)o1 [Example 52, {2-[2-((S)-1-{[2′-(4-Cyano-phenyl)-2-methyl-5-oxo-1-(3-trifluoromethyl-phenyl)-2,5-dihydro-1H,2′H-[3,3′]bipyrazolyl-4-carbonyl]-amino}-ethyl)-oxazol-5-yl]-ethyl}-trimethyl-ammonium benzene sulphonate] | 1 to 10
18 | CC(C)[C@H](NC(=O)c1c(-c2ccnn2-c2ccc(C#N)cc2)n(C)n(-c2cccc(C(F)(F)F)c2)c1=O)c1ncc(C[N+](C)(C)C)o1 [Example 53, [2-((S)-1-{[2′-(4-Cyano-phenyl)-2-methyl-5-oxo-1-(3-trifluoromethyl-phenyl)-2,5-dihydro-1H,2′H-[3,3′]bipyrazolyl-4-carbonyl]-amino}-2-methyl-propyl)-oxazol-5-ylmethyl]-trimethyl-ammonium benzene sulphonate] | < 1
